IC50 data for one molecule are collected here from ChEMBL document CHEMBL5726158, “5H-pyrido[3,2-B]indole compounds as anticancer agents” (2019).

In this assay the target is Bromodomain-containing protein 4 (Homo sapiens, UniProt O60885). The assay is described as follows: Time Resolved Fluorescence Resonance Energy Transfer (TR-FRET) Assay: The binding of compounds to bromodomain BRD4 (44-168), BRD4 (333-460), and BRD4 (1-477 or 44-460) was assessed using a time resolved fluorescent resonance energy transfer binding assay (1), that measures the binding of a fluorescently labeled probe molecule to the bromodomain protein. The bromodomain protein, fluorescent probe molecule (either a biotinylated histone peptide or a fluorescently labeled small molecule), and dose-responsed test compound are incubated together to reach thermodynamic equilibrium. In the absence of a test compound, the bromodomain and small molecule are bound, resulting in a high fluorescent signal. In the presence of a sufficient concentration of inhibitor, this interaction is disrupted resulting in a lost of fluorescent resonance energy transfer.All assay components were dissolved in buffer composition 20 mM Hepes pH 7.5, 150 mM NaCl, 5 mM DTT, 0.005% Tween 20, and 100 ug/ml BSA for BRD4 (1-477 and 44-460). The final concentrations of the bromodomain proteins are 1.6 nM BRD4(44-168), 1 nM BRD4(333-460), and 1 nM BRD4(1-477 or 44-460), and the fluorescent probe molecule is 100 nM, 50 nM, and 7.5 nM respectively. All proteins were biotinylated. […].

As to `Cc1nnn(C)c1-c1cnc2c3cc(C4CCN(C(=O)OC(C)(C)C)CC4)ccc3n([C@H](c3ccccc3)C3CCOCC3)c2c1`, the half-maximal inhibitory concentration (IC50) was less than 5 nM.
